Laboratory results: patent publication US9944666B2, “Compounds that are S1P modulating agents and/or ATX modulating agents” (BIOGEN MA INC., priority 2012, dated 2018)

Target: T1, Human ATX protein (Homo sapiens, UniProt Q13822)
T1 construct: made in house
Test: ATX biochemical FRET assay with FS-3 substrate
Conditions: FS-3 2 μM, ATX 1.0 μg/mL, room temperature 2 hours, fluorescence 485/538 nm
Procedure, shortened: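 Purified human ATX (1.0 μg/mL final) preincubated with compound 30 min at room temperature in Tris pH 7.4 buffer with NaCl, KCl, CaCl2, MgCl2 and 1 mg/mL fatty acid-free BSA. FS-3 added to 2 μM final; 2 h at room temperature in the dark, fluorescence at ex 485/em 538 nm.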

| SMILES | IC50 |
| --- | --- |
| O=C(O)C1CC2CCCC(C1)N2Cc1ccc2c(Cl)c(O[C@H]3CC[C@@H](C(F)(F)F)CC3)ccc2c1 (stereo partly drawn) [Example 111, 9-((5-Chloro-6-((cis-4-(trifluoromethyl)cyclohexyl)oxy)naphthalen-2-yl)methyl)-9-azabicyclo[3.3.1]nonane-3-carboxylic acid] | ≤ 250 nM |
| O=C(O)C12CCC(NCc3ccc4c(C(F)(F)F)c(OC5CCC(C(F)(F)F)CC5)ccc4c3)(CC1)CC2 (stereo not drawn) [Example 144, 3-(4-{[5-trifluoromethyl-6-(4-trifluoromethyl-cyclohexyloxy)-naphthalen-2-ylmethyl]-amino}-bicyclo[2.2.2]oct-1-yl)-carboxylic acid] | ≤ 500 nM |
| O=C(O)C1CC2(C1)CN(Cc1ccc3c(C(F)(F)F)c(O[C@H]4CC[C@@H](C(F)(F)F)CC4)ccc3c1)C2 [Example 146, 2-((5-(trifluoromethyl)-6-((cis-4-(trifluoromethyl)cyclohexyl)oxy)naphthalen-2-yl)methyl)-2-azaspiro[3.3]heptane-6-carboxylic acid] | ≤ 250 nM |
| O=C(O)C1CC2CN(Cc3ccc4c(C(F)(F)F)c(OC5CCC(C(F)(F)F)CC5)ccc4c3)CC2C1 (stereo not drawn) [Example 154, 3-(5-trifluoromethyl-6-(4-trifluoromethyl-cyclohexyloxy)-naphthalen-2-ylmethyl)-3-azabicyclo[3.3.0]octane-7-carboxylic acid] | ≤ 250 nM |
| O=C(O)C1CC2CCC(C1)N2C(=O)c1ccc2c(Cl)c(O[C@H]3CC[C@@H](C(F)(F)F)CC3)ccc2c1 (stereo partly drawn) [Example 186, 8-(5-chloro-6-((cis-4-(trifluoromethyl)cyclohexyl)oxy)-2-naphthoyl)-8-azabicyclo[3.2.1]octane-3-carboxylic acid] | ≤ 250 nM |
| C[C@H]1CC[C@@H](Oc2ccc3cc(CN4C5CCC4CC(C(=O)O)C5)ccc3c2C#N)CC1 (stereo partly drawn) [Example 188, 8-((5-cyano-6-((cis-4-methylcyclohexyl)oxy)naphthalen-2-yl)methyl)-8-azabicyclo[3.2.1]octane-3-carboxylic acid] | ≤ 500 nM |
| CC(c1ccc2c(C#N)c(O[C@H]3CC[C@@H](C)CC3)ccc2c1)N1C2CCC1CC(C(=O)O)C2 (stereo partly drawn) [Example 189, 8-(1-(5-cyano-6-((cis-4-methylcyclohexyl)oxy)naphthalen-2-yl)ethyl)-8-azabicyclo[3.2.1]octane-3-carboxylic acid] | ≤ 250 nM |
| O=C(O)C1CC2CCC(C1)N2C(=O)c1ccc2c(C(F)(F)F)c(N[C@H]3CC[C@@H](C(F)(F)F)CC3)ccc2c1 (stereo partly drawn) [Example 190, 8-(5-(trifluoromethyl)-6-((cis-4-(trifluoromethyl)cyclohexyl)amino)-2-naphthoyl)-8-azabicyclo[3.2.1]octane-3-carboxylic acid] | ≤ 100 nM |
| CC(C)(C)[C@H]1CC[C@H](Nc2ncc3cc(C(=O)N4C5CCCC4CC(C(=O)O)C5)ccc3n2)CC1 (stereo partly drawn) [Example 191, 9-(2-((trans-4-(tert-butyl)cyclohexyl)amino)quinazoline-6-carbonyl)-9-azabicyclo[3.3.1]nonane-3-carboxylic acid] | ≤ 100 nM |
| CC(C)(C)[C@H]1CC[C@H](Nc2cc3ccc(C(=O)N4C5CCC4CC(C(=O)O)C5)cc3cn2)CC1 (stereo partly drawn) [Example 194, 8-(3-((trans-4-(tert-butyl)cyclohexyl)amino)isoquinoline-7-carbonyl)-8-azabicyclo[3.2.1]octane-3-carboxylic acid] | ≤ 100 nM |
| O=C(O)C1CC2CCCC(C1)N2Cc1cc2ccc(O[C@H]3CC[C@@H](C(F)(F)F)CC3)c(C(F)(F)F)c2cn1 (stereo partly drawn) [Example 197, 9-((8-(trifluoromethyl)-7-((cis-4-(trifluoromethyl)cyclohexyl)oxy)isoquinolin-3-yl)methyl)-9-azabicyclo[3.3.1]nonane-3-carboxylic acid] | ≤ 500 nM |
| CC[C@H]1CC[C@@H](Oc2ccc3nc(NC4C5CCCC4CC(C(=O)O)C5)ccc3c2C(F)(F)F)CC1 (stereo partly drawn) [Example 198, 9-((6-((cis-4-ethylcyclohexyl)oxy)-5-(trifluoromethyl)quinolin-2-yl)amino)bicyclo[3.3.1]nonane-3-carboxylic acid] | ≤ 100 nM |
| CC[C@H]1CC[C@@H](Oc2ccc3cc(CN4C5CCCC4CC(C(=O)O)C5)ccc3c2C#N)CC1 (stereo partly drawn) [Example 199, 9-((5-cyano-6-((cis-4-ethylcyclohexyl)oxy)naphthalen-2-yl)methyl)-9-azabicyclo[3.3.1]nonane-3-carboxylic acid] | ≤ 100 nM |
| CC[C@H]1CC[C@@H](Oc2ccc3cc(CN4C5CCC4CC(C(=O)O)C5)ccc3c2C#N)CC1 (stereo partly drawn) [Example 200, 8-((5-cyano-6-((cis-4-ethylcyclohexyl)oxy)naphthalen-2-yl)methyl)-8-azabicyclo[3.2.1]octane-3-carboxylic acid] | ≤ 500 nM |
| O=C(O)C1CC2CCCC(C1)N2C(=O)c1ccc2c(Cl)c(O[C@H]3CC[C@@H](C(F)(F)F)CC3)ccc2c1 (stereo partly drawn) [Example 201, 9-(5-chloro-6-((cis-4-(trifluoromethyl)cyclohexyl)oxy)-2-naphthoyl)-9-azabicyclo[3.3.1]nonane-3-carboxylic acid] | ≤ 250 nM |
| CCC(c1ccc2c(Cl)c(O[C@H]3CC[C@@H](C(F)(F)F)CC3)ccc2c1)N1C2CCC1CC(C(=O)O)C2 (stereo partly drawn) [Example 202, 8-(1-(5-chloro-6-((cis-4-(trifluoromethyl)cyclohexyl)oxy)naphthalen-2-yl)propyl)-8-azabicyclo[3.2.1]octane-3-carboxylic acid] | ≤ 100 nM |
| C[C@H]1CC[C@@H](Oc2ccc3cc(C(=O)N4C5CCC4CC(C(=O)O)C5)ccc3c2Cl)CC1 (stereo partly drawn) [Example 203, 8-(5-chloro-6-((cis-4-methylcyclohexyl)oxy)-2-naphthoyl)-8-azabicyclo[3.2.1]octane-3-carboxylic acid] | ≤ 250 nM |
| CCC(c1ccc2c(C(F)(F)F)c(O[C@H]3CC[C@@H](C(C)(F)F)CC3)ccc2c1)N1C2CCC1CC(C(=O)O)C2 (stereo partly drawn) [Example 204, 8-(1-(6-((cis-4-(1,1-difluoroethyl)cyclohexyl)oxy)-5-(trifluoromethyl)naphthalen-2-yl)propyl)-8-azabicyclo[3.2.1]octane-3-carboxylic acid] | ≤ 100 nM |
| CC(c1ccc2c(Cl)c(O[C@H]3CC[C@@H](C)CC3)ccc2c1)N1C2CCC1CC(C(=O)O)C2 (stereo partly drawn) [Example 205, 8-(1-(5-chloro-6-((cis-4-methylcyclohexyl)oxy)naphthalen-2-yl)ethyl)-8-azabicyclo[3.2.1]octane-3-carboxylic acid] | ≤ 250 nM |
| N#Cc1c(O[C@H]2CC[C@@H](C(F)(F)F)CC2)ccc2cc(C(=O)N3C4CCCC3CC(C(=O)O)C4)ccc12 (stereo partly drawn) [Example 206, 9-(5-cyano-6-((cis-4-(trifluoromethyl)cyclohexyl)oxy)-2-naphthoyl)-9-azabicyclo[3.3.1]nonane-3-carboxylic acid] | ≤ 100 nM |
| C[C@H]1CC[C@@H](Oc2ccc3cc(CN4C5CCCC4CC(C(=O)O)C5)ccc3c2C#N)CC1 (stereo partly drawn) [Example 207, 9-((5-cyano-6-((cis-4-methylcyclohexyl)oxy)naphthalen-2-yl)methyl)-9-azabicyclo[3.3.1]nonane-3-carboxylic acid] | ≤ 100 nM |
| C[C@H]1CC[C@@H](Oc2ccc3cc(C(=O)N4C5CCCC4CC(C(=O)O)C5)ccc3c2Cl)CC1 (stereo partly drawn) [Example 208, 9-(5-chloro-6-((cis-4-methylcyclohexyl)oxy)-2-naphthoyl)-9-azabicyclo[3.3.1]nonane-3-carboxylic acid] | ≤ 250 nM |
| CC(F)(F)[C@H]1CC[C@@H](Oc2ccc3cc(CN4C5CCCC4CC(C(=O)O)C5)ccc3c2C(F)(F)F)CC1 (stereo partly drawn) [Example 209, 9-((6-((cis-4-(1,1-difluoroethyl)cyclohexyl)oxy)-5-(trifluoro-methyl)naphthalen-2-yl)methyl)-9-azabicyclo[3.3.1]nonane-3-carboxylic acid] | ≤ 100 nM |
| CCC(c1ccc2c(Cl)c(O[C@H]3CC[C@@H](C)CC3)ccc2c1)N1C2CCC1CC(C(=O)O)C2 (stereo partly drawn) [Example 210, 8-(1-(5-chloro-6-((cis-4-methylcyclohexyl)oxy)naphthalen-2-yl)propyl)-8-azabicyclo[3.2.1]octane-3-carboxylic acid] | ≤ 100 nM |
| CCC(c1ccc2c(Cl)c(O[C@H]3CC[C@@H](C)CC3)ccc2c1)N1C2CCCC1CC(C(=O)O)C2 (stereo partly drawn) [Example 211, 9-(1-(5-chloro-6-((cis-4-methylcyclohexyl)oxy)naphthalen-2-yl)propyl)-9-azabicyclo[3.3.1]nonane-3-carboxylic acid] | ≤ 100 nM |
| CC[C@H]1CC[C@@H](Oc2ccc3cc(C(C)N4C5CCC4CC(C(=O)O)C5)ccc3c2C#N)CC1 (stereo partly drawn) [Example 212, 8-(1-(5-cyano-6-((cis-4-ethylcyclohexyl)oxy)naphthalen-2-yl)ethyl)-8-azabicyclo[3.2.1]octane-3-carboxylic acid] | ≤ 100 nM |
| CC[C@H]1CC[C@@H](Oc2ccc3cc(C(C)N4C5CCCC4CC(C(=O)O)C5)ccc3c2C#N)CC1 (stereo partly drawn) [Example 213, 9-(1-(5-cyano-6-((cis-4-ethylcyclohexyl)oxy)naphthalen-2-yl)ethyl)-9-azabicyclo[3.3.1]nonane-3-carboxylic acid] | ≤ 100 nM |
| CC(c1ccc2c(Cl)c(O[C@H]3CC[C@@H](C)CC3)ccc2c1)N1C2CCCC1CC(C(=O)O)C2 (stereo partly drawn) [Example 214, 9-(1-(5-chloro-6-((cis-4-methylcyclohexyl)oxy)naphthalen-2-yl)ethyl)-9-azabicyclo[3.3.1]nonane-3-carboxylic acid] | ≤ 100 nM |
| CC[C@H]1CC[C@@H](Oc2ccc3cc(C(=O)N4C5CCC4CC(C(=O)O)C5)ccc3c2Cl)CC1 (stereo partly drawn) [Example 215, 8-(5-chloro-6-((cis-4-ethylcyclohexyl)oxy)-2-naphthoyl)-8-azabicyclo[3.2.1]octane-3-carboxylic acid] | ≤ 500 nM |
| CC(c1ccc2c(C(F)(F)F)c(O[C@H]3CC[C@@H](C(C)(F)F)CC3)ccc2c1)N1C2CCC1CC(C(=O)O)C2 (stereo partly drawn) [Example 216, 8-(1-(6-((cis-4-(1,1-difluoroethyl)cyclohexyl)oxy)-5-(trifluoromethyl)naphthalen-2-yl)ethyl)-8-azabicyclo[3.2.1]octane-3-carboxylic acid] | ≤ 100 nM |
